Results published in PMC7684313, “In vitro and in vivo pharmacological activity of minor cannabinoids isolated from Cannabis sativa” (Scientific Reports, 2020).
“Also recorded” adds a separate entry of the source. Like-named read-outs stand apart in the source and are kept apart here. Marks after values point to notes of the source that are not given here.

How the values were obtained:
hCB1R [1] = target: T1, hCB1R (Homo sapiens, UniProt P21554); experiment: biochemical; assay type: binding
T1 construct: expressed in transfected cells; membranes

C57BL/6 mice [2] = experiment: Catalepsy in the ring holding assay (tetrad); assay type: in vivo; settings: MPE 60 s = 100%
Procedure: (§1) Asterisk colour matches the treatment group assessed.
(§2) Concentration–response curves (CRC) were fit using non-linear regression with variable slope (4 parameters) and used to calculate EC50, Emin, and Emax (GraphPad, Prism, v. 8.0). […] In vivo data are presented as % MPE for catalepsy (MPE = 60 s) and anti-nociception (MPE = 20 s), °C for body temperature, and distance travelled (m) and % time in the centre quadrant in 5 min for OFT. Post-hoc analyses were performed using Tukey’s (one-way ANOVA) test. Homogeneity of variance was confirmed using Bartlett’s test. All data were evaluated for possible outliers using Grubb’s test in GraphPad.

C57BL/6 mice [3] = experiment: Body temperature (tetrad); assay type: in vivo
Procedure: as §1, §2

C57BL/6 mice [4] = experiment: Nociception in the tail flick assay (tetrad); assay type: in vivo
Procedure: as §1, §2

C57BL/6 mice [5] = experiment: Locomotion in the open field test (OFT); assay type: in vivo
Procedure: as §1, §2

hCB2R [6] = target: T2, hCB2R (Homo sapiens, UniProt P34972); experiment: [^3H]CP55,940 displacement from hCB2R CHO cell membranes; settings: for hCB2R Emin: bottom of the concentration–response curve of [^3H]CP55,940 displacement, %CP55,940 response, mean ± SEM; for extent of [^3H]CP55,940 displacement from hCB2R, in words: concentration range 0.1 nM–10 µM
hCB1R [7] = target: T1, hCB1R; experiment: cell-based; assay type: cell-based; settings: for Emax: CHO, read-out: hCB1R Emax, inhibition of FSK-stimulated cAMP accumulation
hCB1R [8] = target: T1, hCB1R; experiment: cell-based; settings: for Emax: CHO, read-out: hCB1R Emax, recruitment of βarrestin2
hCB2R [9] = target: T2, hCB2R; experiment: biochemical
C57BL/6 mice [10] = experiment: Tetrad of assays, overall
hCB2R [11] = target: T2, hCB2R; experiment: hCB2R-dependent inhibition of FSK-stimulated cAMP accumulation (HitHunter CHO cells); assay type: cell-based; set-up: expressed in transfected cells; membranes; settings: for Emax: CHO; for agonist activity in hCB2R cAMP inhibition, in words: 0.1 nM–10 µM, relative to CP55,940
hCB2R [12] = target: T2, hCB2R; experiment: hCB2R-dependent recruitment of βarrestin2 (PathHunter CHO cells); assay type: cell-based; set-up: expressed in transfected cells; membranes; settings: for activity in hCB2R βarrestin2 recruitment, in words: 0.1 nM–10 µM, relative to CP55,940; for Emax: CHO
hCB2R [13] = target: T2, hCB2R; experiment: Ligand bias between cAMP inhibition and βarrestin2 recruitment at hCB2R (operational model); assay type: cell-based; set-up: expressed in transfected cells; membranes; settings: ∆∆LogR > 0 bias for inhibition of cAMP, < 0 bias for βarrestin2; CP55,940 reference agonist
Procedure: (§3) Figure 8 Analysis of ligand bias for phytocannabinoids at hCB1R (a) and hCB2R (b).
as §2

hCB1R [14] = target: T1, hCB1R; experiment: Ligand bias between cAMP inhibition and βarrestin2 recruitment at hCB1R (operational model); assay type: cell-based; settings: ∆∆LogR > 0 bias for inhibition of cAMP, < 0 bias for βarrestin2; CP55,940 reference agonist
Procedure: as §3, §2

C57BL/6 mice [15] = experiment: Time in the centre quadrant of the OFT (anxiety-like behaviour); assay type: in vivo; settings: 1 h post-injection
Procedure: as §1, §2

[16] = HitHunter CHO hCB1R cells, 90 min, 95% CI in brackets, read-out: hCB1R EC50, inhibition of FSK-stimulated cAMP accumulation
[17] = PathHunter CHO hCB1R cells, 90 min, 95% CI in brackets, read-out: hCB1R EC50, recruitment of βarrestin2
[18] = HitHunter CHO hCB2R cells, 90 min, 95% CI in brackets, read-out: hCB2R EC50, inhibition of FSK-stimulated cAMP accumulation
[19] = PathHunter CHO hCB2R cells, 90 min, 95% CI in brackets, read-out: hCB2R EC50, recruitment of βarrestin2
[20] = 10 mg/kg i.p., 1 h post-injection
[21] = dose range 0.1–10 mg/kg i.p., 15 min post-injection

T1 sequence (P21554 whole entry): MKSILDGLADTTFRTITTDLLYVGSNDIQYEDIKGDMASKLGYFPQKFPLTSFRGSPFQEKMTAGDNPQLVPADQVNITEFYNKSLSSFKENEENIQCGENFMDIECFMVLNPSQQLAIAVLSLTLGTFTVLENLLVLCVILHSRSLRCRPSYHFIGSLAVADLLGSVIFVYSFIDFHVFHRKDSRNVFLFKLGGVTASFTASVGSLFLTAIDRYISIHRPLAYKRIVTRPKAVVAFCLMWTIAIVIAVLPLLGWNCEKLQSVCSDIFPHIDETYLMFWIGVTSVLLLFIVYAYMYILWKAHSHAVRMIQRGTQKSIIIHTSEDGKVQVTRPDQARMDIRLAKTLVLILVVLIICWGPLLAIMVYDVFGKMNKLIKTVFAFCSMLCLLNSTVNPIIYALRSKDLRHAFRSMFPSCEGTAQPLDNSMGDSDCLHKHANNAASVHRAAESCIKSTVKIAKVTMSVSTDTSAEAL
T2 sequence (P34972 whole entry): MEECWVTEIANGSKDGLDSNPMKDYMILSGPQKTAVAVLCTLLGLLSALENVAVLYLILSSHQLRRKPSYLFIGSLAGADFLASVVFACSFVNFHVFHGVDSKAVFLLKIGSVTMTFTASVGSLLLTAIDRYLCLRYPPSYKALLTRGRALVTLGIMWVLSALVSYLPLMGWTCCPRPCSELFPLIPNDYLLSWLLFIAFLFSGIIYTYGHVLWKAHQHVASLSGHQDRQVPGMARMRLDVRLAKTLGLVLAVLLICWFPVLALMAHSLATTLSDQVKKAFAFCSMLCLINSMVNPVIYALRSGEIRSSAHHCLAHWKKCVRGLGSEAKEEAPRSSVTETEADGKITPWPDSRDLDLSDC

SMILES | hCB1R Emin (hCB1R [1]) | hCB2R Emin (hCB2R [6]) | Ki (hCB1R [1]) | extent of [^3H]CP55,940 displacement from hCB1R, in words (hCB1R [1]) | Emax (hCB1R [7]) | EC50 (hCB1R [7]; [16]) | Emax (hCB1R [8]) | EC50 (hCB1R [8]; [17]) | Ki (hCB2R [9]) | Emax (hCB2R [11]) | EC50 (hCB2R [11]; [18]) | activity in hCB2R βarrestin2 recruitment, in words (hCB2R [12]) | Emax (hCB2R [12]) | EC50 (hCB2R [12]; [19]) | ligand bias at hCB2R (∆∆LogR), in words (hCB2R [13]) | extent of [^3H]CP55,940 displacement from hCB2R, in words (hCB2R [6]) | ligand bias at hCB1R (∆∆LogR), in words (hCB1R [14]) | anti-nociceptive effect (tail flick latency), in words (C57BL/6 mice [4]; [21]) | further results
CCCCCCC(C)(C)c1ccc([C@@H]2C[C@H](O)CC[C@H]2CCCO)c(O)c1 [CP55,940, reference compound] | 0.0 ± 5.2% | 0.0 ± 6.2% | – | – | – | – | – | – | – | – | – | – | – | – | – | – | – | – | cataleptic response, % of maximum possible effect (MPE) (C57BL/6 mice [2]; 0.1 mg/kg i.p.): 25%; effect on body temperature, in words (C57BL/6 mice [3]; 0.1 mg/kg i.p.): decreased body temperature; anti-nociceptive effect (tail flick latency), in words (C57BL/6 mice [4]; 0.1 mg/kg i.p., 15 min post-injection): anti-nociceptive effects; total locomotion in the OFT, in words (C57BL/6 mice [5]; 0.1 mg/kg i.p., 1 h post-injection): reduced total locomotion
C=C(C)[C@@H]1CCC(C)=C[C@H]1c1c(O)cc(CCC)cc1O [CBDV, cannabidivarin] | 96 ± 5.1*^ % | 22 ± 9.3 % | > 10000 nM | weakly displaced [^3H]CP55,940 at concentrations ≥ 1 µM | 68 ± 5.7% | > 10000 nM | 0.96 ± 0.75% | > 10000 nM | 140 nM | 51 ± 12% | 5 nM | demonstrable efficacy at hCB2R in the βarrestin2 recruitment assay, but with very low potency | 64 ± 13% | > 10000 nM | bias for inhibition of cAMP relative to βarrestin2 | displaced [^3H]CP55,940 from hCB2R to an extent that was not different from CP55,940 | – | – | in vivo responses in the tetrad assays, in words (C57BL/6 mice [10]; doses tested 0.1–10 mg/kg i.p.): no significant in vivo responses
C=C(C)[C@@H]1CCC(C)=C[C@H]1c1c(O)cc(CCCCC)c(C(=O)O)c1O [CBDa, cannabidiolic acid] | 96 ± 6.5*^ % | 30 ± 7.8 % | > 10000 nM | weakly displaced [^3H]CP55,940 at concentrations ≥ 1 µM | 22 ± 1.1% | 30 nM | 0.1 ± 0.11% | > 10000 nM | 12 nM | 32 ± 4.2% | 140 nM | – | 18 ± 2.5% | > 10000 nM | bias for inhibition of cAMP relative to βarrestin2 | displaced [^3H]CP55,940 from hCB2R to an extent that was not different from CP55,940 | bias for the inhibition of cAMP relative to βarrestin2 | – | total locomotion in the OFT, in words (C57BL/6 mice [5]; [20]): Hypolocomotive responses
CCCc1cc(O)c2c(c1)OC(C)(C)[C@@H]1CCC(C)=C[C@@H]21 [THCV, ∆^9-tetrahydrocannabivarin] | 54 ± 4.1*^ % | 27 ± 9.5% | 22 nM | partially displaced | 59 ± 3.9% | 260 nM | 0.05 ± 2.1% | > 10000 nM | 47 nM | 79 ± 1.3% | – | demonstrable efficacy at hCB2R in the βarrestin2 recruitment assay, but with very low potency; also recorded: agonist | 50 ± 6.8% | – | – | displaced [^3H]CP55,940 from hCB2R to an extent that was not different from CP55,940 | – | dose-dependent increase in anti-nociceptive effects | agonist activity in hCB1R cAMP inhibition, in words (hCB1R [7]): weak partial agonist response; cataleptic response, % of maximum possible effect (MPE) (C57BL/6 mice [2]; 10 mg/kg i.p.): 39%; effect on body temperature, in words (C57BL/6 mice [3]; 10 mg/kg i.p.): decreased body temperature; also recorded: hypothermic; anti-nociceptive effect (tail flick latency), in words (C57BL/6 mice [4]; 3 and 10 mg/kg i.p.): anti-nociceptive; total locomotion in the OFT, in words (C57BL/6 mice [5]; 3 and 10 mg/kg i.p.): hypolocomotive; time in the central quadrant of the OFT (modelled anxiolytic effect), in words (C57BL/6 mice [15]; 3 and 10 mg/kg i.p.): anxiolytic; EC50 (hCB2R [11]): 280 nM; agonist activity in hCB2R cAMP inhibition, in words (hCB2R [11]): agonist; EC50 (hCB2R [12]): > 10000 nM
C=C(C)[C@@H]1CCC(C)=C[C@H]1c1c(O)cc(CCCCC)cc1O [CBD, cannabidiol, reference compound] | – | 54 ± 9.3*^ % | – | weakly displaced [^3H]CP55,940 at concentrations ≥ 1 µM | 26 ± 1.6% | – | 1 ± 1.6% | – | – | 61 ± 2.3% | – | modest agonist activity | 23 ± 2.8% | – | – | – | – | – | effects in the tetrad of assays, in words (C57BL/6 mice [10]; between 1 and 10 mg/kg): no effects
CCCCCc1cc2c(c(O)c1C(=O)O)[C@@H]1C=C(C)CC[C@H]1C(C)(C)O2 [∆^9-THCa, ∆^9-tetrahydrocannabinolic acid] | 67 ± 11*^ % | 49 ± 7.2*^ % | 620 nM | partially displaced | 35 ± 11% | – | 4.1 ± 1.5% | – | 1.3 nM | 95 ± 1.5% | – | – | 15 ± 2.5% | – | – | – | bias for the inhibition of cAMP relative to βarrestin2 | dose-dependent increase in anti-nociceptive effects | EC50 (hCB1R [7]): > 10000 nM; agonist activity in hCB1R cAMP inhibition, in words (hCB1R [7]): weak partial agonist; EC50 (hCB1R [8]): > 10000 nM; anti-nociceptive effect (tail flick latency), in words (C57BL/6 mice [4]; 3 and 10 mg/kg i.p.): anti-nociceptive; total locomotion in the OFT, in words (C57BL/6 mice [5]; 3 and 10 mg/kg i.p.): hypolocomotive effects; time in the central quadrant of the OFT (modelled anxiolytic effect), in words (C57BL/6 mice [15]; 10 mg/kg i.p.): anxiolytic-like effects; EC50 (hCB2R [11]): 1800 nM; agonist activity in hCB2R cAMP inhibition, in words (hCB2R [11]): weakly potent agonist; EC50 (hCB2R [12]): > 10000 nM
CCCCCc1cc(O)c2c(c1)OC(C)(CCC=C(C)C)C=C2 (stereo not shown) [CBC, cannabichromene] | 55 ± 3.7*^ % | 9.7 ± 5.9 % | 11 nM | partially displaced | 68 ± 9.7% | 190 nM | 6.9 ± 0.96% | > 10000 nM | – | 76 ± 5.4% | 7.1 nM | – | 12 ± 2.8% | > 10000 nM | bias for inhibition of cAMP relative to βarrestin2 | displaced [^3H]CP55,940 from hCB2R to an extent that was not different from CP55,940 | bias for the inhibition of cAMP relative to βarrestin2 | – | anti-nociceptive effect (tail flick latency), in words (C57BL/6 mice [4]; 3 mg/kg i.p., 15 min post-injection): weak anti-nociceptive effect; total locomotion in the OFT, in words (C57BL/6 mice [5]; [20]): Hypolocomotive responses
CCCCCc1cc(O)c2c(c1)OC(C)(C)[C@@H]1CCC(C)=C[C@@H]21 [∆^9-THC, ∆^9-tetrahydrocannabinol, reference compound] | – | 7.4 ± 4.4% | – | – | – | – | – | – | – | 76 ± 8.6% | – | modest agonist activity | 46 ± 4.9% | – | bias for inhibition of cAMP relative to βarrestin2 | displaced [^3H]CP55,940 from hCB2R to an extent that was not different from CP55,940 | – | dose-dependent increase in anti-nociceptive effects | cataleptic response, % of maximum possible effect (MPE) (C57BL/6 mice [2]; 3 mg/kg i.p.): 17%; cataleptic response, % of maximum possible effect (MPE) (C57BL/6 mice [2]; 10 mg/kg i.p.): 100%; effect on body temperature, in words (C57BL/6 mice [3]; 3 and 10 mg/kg i.p.): decreased body temperature
